Results as given in US20260262643A1, “HERBICIDAL BENZOXAZINES” (FMC CORPORATION, priority 2022, published 2026).

Legend:
blackgrass [1] = assay: Test A preemergence; format: in vivo, Alopecurus myosuroides
Procedure, shortened: (§1)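 Weeds and crops in loam–sand blend were sprayed preemergence onto soil or postemergence at 2–10 cm (one- to two-leaf stage). Test chemicals were in a non-phytotoxic solvent with surfactant. After 10 days in the greenhouse, injury was rated visually against untreated controls on a 0 (no effect) to 100 (complete control) scale.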

corn [2] = assay: Test A preemergence; format: in vivo, Zea mays
Procedure, shortened: as §1

foxtail, giant [3] = assay: Test A preemergence; format: in vivo, Setaria faberi
Procedure, shortened: as §1

goosegrass [4] = assay: Test A preemergence; format: in vivo, Eleusine indica
Procedure, shortened: as §1

kochia [5] = assay: Test A preemergence; format: in vivo, Bassia scoparia
Procedure, shortened: as §1

oat, wild [6] = assay: Test A preemergence; format: in vivo, Avena fatua
Procedure, shortened: as §1

pigweed, palmer [7] = assay: Test A preemergence; format: in vivo, Amaranthus palmeri
Procedure, shortened: as §1

ragweed [8] = assay: Test A preemergence; format: in vivo, Ambrosia artemisiifolia
Procedure, shortened: as §1

ryegrass, Italian [9] = assay: Test A preemergence; format: in vivo, Lolium multiflorum
Procedure, shortened: as §1

soybean [10] = assay: Test A preemergence; format: in vivo, Glycine max
Procedure, shortened: as §1

wheat [11] = assay: Test A preemergence; format: in vivo, Triticum aestivum
Procedure, shortened: as §1

blackgrass [12] = assay: Test A postemergence; format: in vivo, Alopecurus myosuroides
Procedure, shortened: as §1

corn [13] = assay: Test A postemergence; format: in vivo, Zea mays
Procedure, shortened: as §1

foxtail, giant [14] = assay: Test A postemergence; format: in vivo, Setaria faberi
Procedure, shortened: as §1

goosegrass [15] = assay: Test A postemergence; format: in vivo, Eleusine indica
Procedure, shortened: as §1

kochia [16] = assay: Test A postemergence; format: in vivo, Bassia scoparia
Procedure, shortened: as §1

oat, wild [17] = assay: Test A postemergence; format: in vivo, Avena fatua
Procedure, shortened: as §1

pigweed, palmer [18] = assay: Test A postemergence; format: in vivo, Amaranthus palmeri
Procedure, shortened: as §1

ragweed [19] = assay: Test A postemergence; format: in vivo, Ambrosia artemisiifolia
Procedure, shortened: as §1

ryegrass, Italian [20] = assay: Test A postemergence; format: in vivo, Lolium multiflorum
Procedure, shortened: as §1

soybean [21] = assay: Test A postemergence; format: in vivo, Glycine max
Procedure, shortened: as §1

wheat [22] = assay: Test A postemergence; format: in vivo, Triticum aestivum
Procedure, shortened: as §1

galium = assay: Test A postemergence; format: in vivo, Galium aparine
Procedure, shortened: as §1

horseweed = assay: Test A postemergence; format: in vivo, Erigeron canadensis
Procedure, shortened: as §1

barnyardgrass = assay: Test B flooded paddy test; format: in vivo, Echinochloa crus-galli; conditions: 250 g ai/ha, Flood, 13 days, 0 to 100 scale (0 no effect, 100 complete control)
Procedure, shortened: (§2)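 2-leaf stage; pots flooded 3 cm over soil; compound dosed into paddy water; depth kept constant. Greenhouse, 13 d. Visual rating vs controls, 0 (no effect)–100 (complete control). Dash = no result.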

ducksalad = assay: Test B flooded paddy test; format: in vivo, Heteranthera limosa; conditions: 250 g ai/ha, Flood, 13 days, 0 to 100 scale (0 no effect, 100 complete control)
Procedure, shortened: as §2

rice = assay: Test B flooded paddy test; format: in vivo, Oryza sativa; conditions: 250 g ai/ha, Flood, 13 days, 0 to 100 scale (0 no effect, 100 complete control)
Procedure, shortened: as §2

sedge, umbrella = assay: Test B flooded paddy test; format: in vivo, Cyperus difformis; conditions: 250 g ai/ha, Flood, 13 days, 0 to 100 scale (0 no effect, 100 complete control)
Procedure, shortened: as §2

[23] = 125 g ai/ha, visual injury after 10 days, 0 to 100 scale, 0 is no effect, 100 is complete control
[24] = 500 g ai/ha, 0 to 100 scale (0 no effect, 100 complete control), 10 days
[25] = 125 g ai/ha, postemergence, 10 days, visual injury, 0 to 100 scale (0 no effect, 100 complete control)
[26] = 500 g ai/ha, Postemergence, 0 to 100 scale
[27] = 125 g ai/ha, postemergence, 10 days, 0 to 100 scale, 0 no effect, 100 complete control
[28] = 500 g ai/ha, postemergence, 10 days, visual injury, 0 to 100 scale (0 no effect, 100 complete control)

Cc1cccc2c1O[C@@H](C)CN2C(=O)c1ccc(F)c(-n2cncn2)c1 [Compound 52]
25: Plant response rating, Barnyardgrass (barnyardgrass)
60: Plant response rating, Blackgrass (blackgrass [1]; [24]) | Plant response rating, Wheat (wheat [11]; [24]) | Plant response rating, Blackgrass (blackgrass [12]; [26]) | Plant response rating, Foxtail, Giant (foxtail, giant [14]; [25]) | Plant response rating, Goosegrass (goosegrass [15]; [26]) | Plant response rating, Kochia (kochia [16]; [26]) | Plant response rating, Pigweed, Palmer (pigweed, palmer [18]; [26]) | Plant response rating, Wheat (wheat [22]; [26])
100: Plant response rating, Foxtail, Giant (foxtail, giant [3]; [24]) | Plant response rating, Goosegrass (goosegrass [4]; [24]) | Plant response rating, Pigweed, Palmer (pigweed, palmer [7]; [24]) | Plant response rating, Ryegrass, Italian (ryegrass, Italian [9]; [24]) | Plant response rating, Soybean (soybean [21]; [25]) | Plant response rating, Soybean (soybean [21]; [26])
30: Plant response rating, Soybean (soybean [10]; [23]) | Plant response rating, Wheat (wheat [11]; [23]) | Plant response rating, Pigweed, Palmer (pigweed, palmer [18]; [25]) | Plant response rating, Ragweed (ragweed [19]; [26]) | Plant response rating, Wheat (wheat [22]; [25]) | Plant response rating, Galium (galium; [25])
0: Plant response rating, Kochia (kochia [5]; [23]) | Plant response rating, Pigweed, Palmer (pigweed, palmer [7]; [23]) | Plant response rating, Ragweed (ragweed [8]; [23]) | Plant response rating, Ragweed (ragweed [19]; [25]) | Plant response rating, Horseweed (horseweed; [25]) | Plant response rating, Horseweed (horseweed; [26])
40: Plant response rating, Corn (corn [2]; [24]) | Plant response rating, Oat, Wild (oat, wild [6]; [23]) | Plant response rating, Corn (corn [13]; [25]) | Plant response rating, Ryegrass, Italian (ryegrass, Italian [20]; [25])
75: Plant response rating, Sedge, Umbrella (sedge, umbrella)
90: Plant response rating, Foxtail, Giant (foxtail, giant [3]; [23]) | Plant response rating, Goosegrass (goosegrass [4]; [23]) | Plant response rating, Soybean (soybean [10]; [24]) | Plant response rating, Foxtail, Giant (foxtail, giant [14]; [26]) | Plant response rating, Galium (galium; [26])
70: Plant response rating, Kochia (kochia [5]; [24]) | Plant response rating, Ragweed (ragweed [8]; [24]) | Plant response rating, Corn (corn [13]; [26])
10: Plant response rating, Kochia (kochia [16]; [25]) | Plant response rating, Rice (rice)
80: Plant response rating, Oat, Wild (oat, wild [6]; [24]) | Plant response rating, Ryegrass, Italian (ryegrass, Italian [9]; [23]) | Plant response rating, Oat, Wild (oat, wild [17]; [26]) | Plant response rating, Ryegrass, Italian (ryegrass, Italian [20]; [26])
50: Plant response rating, Blackgrass (blackgrass [1]; [23]) | Plant response rating, Blackgrass (blackgrass [12]; [25]) | Plant response rating, Goosegrass (goosegrass [15]; [25]) | Plant response rating, Ducksalad (ducksalad)
20: Plant response rating, Corn (corn [2]; [23]) | Plant response rating, Oat, Wild (oat, wild [17]; [25])

CCOc1ccc(-n2cnc(C(C)C)n2)cc1C(=O)N1C[C@H](C)Oc2c(Cl)cccc21 [Compound 106]
80: Plant response rating, Blackgrass (blackgrass [12]; [28]) | Plant response rating, Ryegrass, Italian (ryegrass, Italian [20]; [28]) | Plant response rating, Horseweed (horseweed; [28])
50: Plant response rating, Corn (corn [2]; [24]) | Plant response rating, Kochia (kochia [5]; [23]) | Plant response rating, Soybean (soybean [10]; [23]) | Ragweed plant response rating (ragweed [19]; [27])
55: Plant response rating, Barnyardgrass (barnyardgrass)
20: Plant response rating, Oat, Wild (oat, wild [6]; [23]) | Ryegrass, Italian plant response rating (ryegrass, Italian [20]; [27]) | Wheat plant response rating (wheat [22]; [27])
40: Plant response rating, Ryegrass, Italian (ryegrass, Italian [9]; [23]) | Plant response rating, Wheat (wheat [11]; [24]) | Plant response rating, Wheat (wheat [22]; [28])
90: Plant response rating, Oat, Wild (oat, wild [6]; [24]) | Plant response rating, Corn (corn [13]; [28]) | Foxtail, Giant plant response rating (foxtail, giant [14]; [27]) | Plant response rating, Goosegrass (goosegrass [15]; [28]) | Kochia plant response rating (kochia [16]; [27]) | Plant response rating, Kochia (kochia [16]; [28]) | Plant response rating, Pigweed, Palmer (pigweed, palmer [18]; [28]) | Plant response rating, Sedge, Umbrella (sedge, umbrella)
100: Plant response rating, Foxtail, Giant (foxtail, giant [3]; [23]) | Plant response rating, Foxtail, Giant (foxtail, giant [3]; [24]) | Plant response rating, Goosegrass (goosegrass [4]; [23]) | Plant response rating, Goosegrass (goosegrass [4]; [24]) | Plant response rating, Kochia (kochia [5]; [24]) | Plant response rating, Pigweed, Palmer (pigweed, palmer [7]; [23]) | Plant response rating, Pigweed, Palmer (pigweed, palmer [7]; [24]) | Plant response rating, Ragweed (ragweed [8]; [24]) | Plant response rating, Ryegrass, Italian (ryegrass, Italian [9]; [24]) | Plant response rating, Soybean (soybean [10]; [24]) | Plant response rating, Foxtail, Giant (foxtail, giant [14]; [28]) | Soybean plant response rating (soybean [21]; [27]) | Plant response rating, Soybean (soybean [21]; [28]) | Plant response rating, Galium (galium; [28])
15: Plant response rating, Rice (rice)
60: Blackgrass plant response rating (blackgrass [12]; [27]) | Corn plant response rating (corn [13]; [27]) | Plant response rating, Oat, Wild (oat, wild [17]; [28])
30: Plant response rating, Ragweed (ragweed [8]; [23]) | Oat, Wild plant response rating (oat, wild [17]; [27])
0: Plant response rating, Blackgrass (blackgrass [1]; [23]) | Plant response rating, Blackgrass (blackgrass [1]; [24]) | Plant response rating, Wheat (wheat [11]; [23])
10: Plant response rating, Corn (corn [2]; [23]) | Horseweed plant response rating (horseweed; [27]) | Plant response rating, Ducksalad (ducksalad)
70: Goosegrass plant response rating (goosegrass [15]; [27]) | Pigweed, Palmer plant response rating (pigweed, palmer [18]; [27]) | Plant response rating, Ragweed (ragweed [19]; [28]) | Galium plant response rating (galium; [27])
